Test results taken from patent US20210207099A1, “METHODS AND COMPOSITIONS FOR GENERATING CELLS OF ENDODERMAL LINEAGE AND BETA CELLS AND USES THEREOF” (priority 2018, published 2021).

Assays:
plated stage 4 cells = experiment: qRT-PCR and immunostaining of plated stage 4 cells treated with cytoskeletal modifying compounds; format: cell-based, human
Source text: For experiments investigating the effects of plating pancreatic progenitors, cells were differentiated with the suspension protocol for stages 1-3. At the end of stage 3, clusters were single cell dispersed with TrypLE and plated onto tissue culture plates coated with various ECM proteins at 0.625×10^6 cells/cm^2. Differentiation media for the remainder of this hybrid protocol were the same as for the suspension protocol with the exception that Y-27632 and Activin A were omitted on days 2-5 of stage 4. Additional compounds were added as indicated in each experiment: 1 μM latrunculin A (Cayman Chemical, 10010630), 1 μM latrunculin B (Cayman Chemical, 10010631), 1 μM cytochalasin D (MilliporeSigma, C2618), 1 μM jasplakinolide (Cayman Chemical, 11705), 10 μM blebbistatin (MilliporeSigma, 203389), 1 μM nocodazole (Cayman Chemical, 13857), 1 μM Y-15 (Cayman Chemical, 14485), 10 μM Y-27632, and 10 μM GDC-0994 (Selleckchem, S7554). A variety of ECM coatings were initially tested with this plating methodology, including collagen I (Corning, 354249), collagen IV (Corning, 354245), fibronectin (Gibco, 33016-015), vitronectin (Gibco, A14700), matrigel (Corning, 356230), gelatin (Fisher, G7-500), and laminins 111, 121, 211, 221, 411, 421, 511, and 521 (Biolamina, LNKT-0201). All subsequent experiments with this hybrid protocol were performed on collagen I.
Brightfield images were taken with a Leica DMi1 inverted light microscope, and fluorescence images were captured with a Nikon A1Rsi confocal microscope. For immunostaining, cells were fixed with 4% paraformaldehyde (PFA) at room temperature for 30 minutes. They were then blocked and permeabilized for 45 minutes at room temperature with an immunocytochemistry (ICC) solution consisting of 0.1% triton X (Acros Organics, 327371000) and 5% donkey serum (Jackson Immunoresearch, 017000-121) in PBS (Corning, 21-040-CV). Samples were then incubated with primary antibodies diluted in ICC solution overnight at 4° C., washed with ICC, incubated with secondary antibodies diluted in ICC for 2 hours at room temperature, and stained with DAPI for 15 minutes at room temperature. For histological sectioning, whole SC-β cell clusters generated with the planar protocol and mouse kidneys containing transplanted cells were fixed overnight with 4% PFA at 4° C. The in vitro clusters were also embedded in Histogel (Thermo Scientific, hg-4000-012). These samples were then paraffin-embedded and sectioned by the Division of Comparative Medicine (DCM) Research Animal Diagnostic Laboratory Core at Washington University in St. Louis. Paraffin was removed from sectioned samples with Histoclear (Thermo Scientific, C78-2-G), and antigen retrieval was carried out in a pressure cooker (Proteogenix, 2100 Retriever) with 0.05 M EDTA (Ambion, AM9261). Slides were blocked and permeabilized with ICC solution for 45 minutes, incubated with primary antibodies in ICC solution overnight at 4° C., and incubated with secondary antibodies for 2 hours at room temperature. Slides were then sealed with DAPI Fluoromount-G (SouthernBiotech, 0100-20).
RNA was extracted from either whole clusters or cells directly on the plate with the RNeasy Mini Kit (Qiagen, 74016). Samples were treated with a DNAse kit (Qiagen, 79254) during extraction. The High Capacity cDNA Reverse Transcriptase Kit (Applied Biosystems, 4368814) was used to synthesize cDNA on a thermocycler (Applied Biosystems, A37028). The PowerUp SYBR Green Master Mix (Applied Biosystems, A25741) was used on a StepOnePlus (Applied Biosystems), and real time PCR results were analyzed using a ΔΔCt methodology. TBP and GUSB were both used as housekeeping genes. Primer sequences were as follows.

Stage 6 cells [1] = experiment: Perifusion GSIS with sequential secretagogue challenges; format: cell-based, human; conditions: for insulin secretion during second challenge, secretagogue added to 20 mM glucose: 30 mM KCL, 20 mM L-Arginine, 300 μM Tolbutamide, 100 μM IBMX, 10 nM Extendin-4
Experimental: The system used a high precision 8-channel dispenser pump (ISMATEC; ISM931C) in conjunction with 0.015″ inlet and outlet two-stop tubing (ISMATEC; 070602-04i-ND) connected to 275-μl cell chamber (BioRep; Pen-Chamber) and dispensing nozzle (BioRep; PERI-NOZZLE) using 0.04″ connection tubbing (BioRep; Peri-TUB-040). Solutions, tubing, and cells were maintained at 37° C. in a water bath. Stage 6 clusters and cadaveric human islets were washed with KRB twice and resuspended in 2 mM glucose KRB. Cells were then loaded onto a Biorep perifusion chamber sandwiched between two layers of Bio-Gel P-4 polyacrylamide beads (Bio-Rad; 150-4124). Cells were perfused with 2 mM glucose KRB for 90 min prior to sample collection for equilibration. For single high glucose challenges, sample collection was started with cells exposed to 2 mM glucose KRB for 12 min, followed by 24 min of 20 mM glucose KRB, and back to 2 mM glucose KRB for an additional 12 min. For multiple secretagogue challenges, sample collection was started with cells exposed to 2 mM glucose KRB for 6 min, followed by 12 min of 20 mM glucose KRB, 6 min 2 mM glucose KRB, 12 min of 20 mM glucose KRB plus treatment, and finally 6 min of 2 mM glucose KRB. Treatments with multiple secretagogues were as follows: 20 mM glucose only, 10 nM Extendin-4 (MilliporeSigma; E7144), 100 μM IBMX (MilliporeSigma; 15879), 300 μM Tolbutamide (MilliporeSigma; T0891), 20 mM L-Arginine (MilliporeSigma; A5006), and 30 mM KCL (Thermo Fisher; BP366500). Effluent was collected at a 100 μl/min flow rate with 2-4 min collection points. After sample collection, clusters were collected and lysed in 10 mM Tris (MilliporeSigma; T6066), 1 mM EDTA, and 0.2% Triton-X 100 solution and DNA was quantified using Quant-iT Picogreen dsDNA assay kit (Invitrogen; P7589). Insulin secretion was quantified using the Human Insulin Elisa kit.

[2] = system: TGFβ signaling (phosphorylated SMAD); experiment: Western blot of SMAD 2/3 phosphorylation in Stage 6 cells; format: cell-based, human; conditions: Alk5i versus DMSO
Experimental: Protein was extracted from cell clusters after washing with PBS by placing in western blot lysis buffer consisting 50 mM HEPES, 140 mM NaCl (MilliporeSigma; 7647-14-5), 1 mM EDTA (MilliporeSigma, 1233508), 1% Triton X-100, 0.1% Na-deoxycholate (MilliporeSigma: D6750), 0.1% SDS (ThermoScientific; 24730020), 1 mM Na3VO4 (MilliporeSigma; 450243), 10 mM NaF (MilliporeSigma; S7920), and 1% Protease Inhibitor Cocktail (MilliporeSigma; p8340), incubating on a shaker for 15 min at 4° C., and centrifuging at 10000 RCF for 10 min at 4° C. Protein amount was quantified with the Pierce BCA Protein Assay (Thermo Scientific; 23228). Protein (30 μg) was loaded onto a 4-20% gradient polyacrylamide gel (Invitrogen; SP04200BOX), resolved by electrophoresis, and transferred onto a 0.45 μm nitrocellulose membrane (BioRad; 1620115). The nitrocellulose membrane was blocked with Blotting Grade Blocker (BioRad; 170-6404) and incubated with rabbit-anti-phospho-SMAD⅔ 1:1000 (Cell Signaling Technologies; 8828) and rabbit-anti-Actin 1:1000 (Santa Cruz Biotechnology; SC1616) antibodies in blocker overnight at 4° C. Membrane was washed and stained with rabbit secondary antibody 1:2500 (Jackson Immuno Research Laboratories; 211-032-171) in blocker for 2 hr at 4° C. and developed using SuperSignal West Femto (Thermo Scientific; 34096). Images were taken on an Odyssey FC (Li-COR). After imaging, the nitrocellulose membrane was stripped using Restore Western Blot Stripping Buffer (Thermo Scientific; 21059), incubated with rabbit-anti-SMAD⅔ (Cell Signaling Technologies; 8685) antibody overnight at 4° C., washed and stained with rabbit secondary antibody 1:2500 in blocker for 2 hr 4° C., developed using SuperSignal West Femto, and imaged using the Odyssey FC.

Stage 5 cells = system: Stage 5 cells
Experimental: To initiate differentiation, undifferentiated cells were single-cell dispersed using Accutase and seeded at 6×10^5 cells/mL in mTeSR1+10 μM Y27632 in a 30-ml spinner flask. Cells were then cultured for 72 hr in mTeSR1 and then cultured in the following differentiation media. Stage 1 (3 days): S1 media+100 ng/ml Activin A (R&D Systems; 338-AC)+3 μM Chir99021 (Stemgent; 04-0004-10) for 1 day. S1 media+100 ng/ml Activin A for 2 days. Stage 2 (3 days): S2 media+50 ng/ml KGF (Peprotech; AF-100-19). Stage 3 (1 day): S3 media+50 ng/ml KGF+200 nM LDN193189 (Reprocell; 040074)+500 nM PdBU (MilliporeSigma; 524390)+2 μM Retinoic Acid (MilliporeSigma; R2625)+0.25 μM Sant1 (MilliporeSigma; S4572)+10 μM Y27632. Stage 4 (5 days): S4 media+5 ng/mL Activin A+50 ng/mL KGF+0.1 μM Retinoic Acid+0.25 μM SANT1+10 μM Y27632. Stage 5 (7 days): S5 media+10 μM ALK5i II (Enzo Life Sciences; ALX-270-445-M005)+20 ng/mL Betacellulin (R&D Systems; 261-CE-050)+0.1 μM Retinoic Acid+0.25 μM SANT1+1 μM T3 (Biosciences; 64245)+1 μM XXI (MilliporeSigma; 595790). Stage 6 (7-35 days): ESFM.
(§1) Assays were performed by collecting ˜20-30 stage 6 clusters or cadaveric human islets, washed twice with KRB buffer (128 mM NaCl, 5 mM KCl, 2.7 mM CaCl2) 1.2 mM MgSO4, 1 mM Na2HPO4, 1.2 mM KH2PO4, 5 mM NaHCO3, 10 mM HEPES (Gibco; 15630-080), and 0.1% BSA), resuspended in 2 mM glucose KRB, and placed into transwells (Corning; 431752) in 24-well plates. Clusters were incubated at 2 mM glucose KRB for a 1 hr equilibration. The transwell was then drained and transferred into a new 2 mM glucose KRB well, discarding the old KRB solution. Clusters were again incubated for 1 hr at low glucose and then the transwell is drained and transferred into a new 2, 5.6, 11.1, or 20 mM glucose KRB well, retaining the old 2 mM glucose KRB. Clusters were then incubated for 1 hr at high glucose and then the transwell was drained and the old glucose KRB was retained. The retained KRB was run with the Human Insulin Elisa (ALPCO; 80-INSHU-E10.1) to quantify insulin secretion. The cells were single-cell dispersed by TrypLE treatment, counted on a Vi-Cell XR, and viable cell counts used to normalize insulin secretion.
Clusters were single-cell dispersed with TrypLE, fixed with 4% paraformaldehyde for 30 min at 4° C., blocked and permeabilized with staining buffer for 30 min at 4° C., incubated with primary antibodies in staining buffer overnight at 4° C., incubated with secondary antibodies in staining buffer for 2 hr at 4° C., resuspended in staining buffer, and analyzed on an LSRII (BD Biosciences) or X-20 (BD Biosciences). Dot plots and percentages were generated using FlowJo. All antibodies were used at 1:300 dilution except where noted. The antibodies used were: rat-anti-C-peptide, mouse-anti-nkx6.1 (1:100), mouse-anti-glucagon, rabbit-anti-somatostatin, rabbit-anti-chromogranin A (1:1000), goat-anti-pdx1, anti-rat-alexa fluor 488, anti-mouse-alexa fluor 647 (Invitrogen; a31571), anti-rabbit-alexa fluor 647 (Invitrogen; a31573), anti-goat-alexa fluor 647 (Invitrogen; a21447), anti-rabbit-alexa fluor 488 (Invitrogen; a21206).
RNA was extracted using the RNeasy Mini Kit (Qiagen; 74016) with DNase treatment (Qiagen; 79254), and cDNA was synthesized using High Capacity cDNA Reverse Transcriptase Kit (Applied Biosystems; 4368814). Real-time PCR reactions were performed in PowerUp SYBR Green Master Mix (Applied Biosystems; A25741) on a StepOnePlus (Applied Biosystems) and analyzed using ΔΔCt methodology. TBP was used as a normalization gene.

Stage 6 cells [3] = system: Stage 6 cells
Experimental: as §1

Compound: C/C1=C/C(=O)O[C@@H]2C[C@@H](CC[C@H](C)/C=C\CC1)O[C@@](O)([C@@H]1CSC(=O)N1)C2 [Latrunculin B]
- dose response of NEUROG3 expression (plated stage 4 cells; added during stage 4, qRT-PCR): increased NEUROG3 expression in a dose-dependent manner
- concentration required relative to latrunculin A to achieve a similar effect on NEUROG3 (plated stage 4 cells; plated HUES8, stage 4): ~10 ×

Compound: N=C(N)NCCC[C@H](N)C(=O)O [L-Arginine]
- insulin secretion during second challenge, secretagogue added to 20 mM glucose (Stage 6 cells [1]): largest increases

Compound: CC(C)Cn1c(=O)n(C)c(=O)c2[nH]cnc21 [3-isobutyl-1-methylxanthine]
- insulin secretion during second challenge, secretagogue added to 20 mM glucose (Stage 6 cells [1]): increased insulin secretion over high glucose alone

Compound: C/C1=C\[C@H](C)C[C@H](C)OC(=O)C[C@H](c2ccc(O)cc2)NC(=O)[C@@H](Cc2c(Br)[nH]c3ccccc23)N(C)C(=O)[C@H](C)NC(=O)[C@@H](C)C1 [jasplakinolide]
- premature NEUROG3 expression in reaggregated clusters (plated stage 4 cells; added to pancreatic progenitors during reaggregation after dispersion): attenuated premature NEUROG3 expression

Compound: CCCCNC(=O)NS(=O)(=O)c1ccc(C)cc1 [Tolbutamide]
- insulin secretion during second challenge, secretagogue added to 20 mM glucose (Stage 6 cells [1]): increased insulin secretion over high glucose alone

Compound: Cc1cccc(-c2[nH]ncc2-c2ccc3ncccc3n2)n1 [Alk5i, Alk5 inhibitor type II]
- phosphorylated SMAD [2]: diminished phosphorylated SMAD
- insulin secretion after further 7 d in Stage 6 (Stage 5 cells; Alk5i during Stage 5, Stage 6 without Alk5i nor cluster resizing, 20 mM glucose): substantially higher in cells treated with Alk5i during Stage 5
- INS and GCG gene expression (Stage 5 cells; Alk5i omission during Stage 5): decreased with Alk5i omission
- SST expression (Stage 5 cells; Alk5i omission during Stage 5): slightly increased
- fraction of cells co-expressing C-peptide and NKX6-1 (Stage 5 cells; omitting Alk5i during Stage 5): decreased by omitting Alk5i
- fraction of cells differentiated to a C-peptide+ phenotype (Stage 5 cells; omitting Alk5i during Stage 5): decreased by omitting Alk5i
- fraction of cells differentiated to endocrine cells (CHGA+) (Stage 5 cells; omitting Alk5i during Stage 5): unchanged
- expression of NKX6-1 and PDX1 (Stage 5 cells; without Alk5i during Stage 5): reduced without Alk5i
- GSIS in a static assay with inclusion during Stage 6 (Stage 6 cells [3]; Alk5i during Stage 6): relatively weak but statistically significant GSIS
- insulin secretion in the dynamic GSIS assay (Stage 6 cells [3]; Alk5i during Stage 6): dramatically reduced insulin secretion
- proinsulin/insulin ratio (Stage 6 cells [3]; DMSO versus Alk5i during Stage 6): remained similar
- fraction of cells expressing pancreatic endocrine markers, including C-peptide (Stage 6 cells [3]; DMSO- versus Alk5i-treated cells, Stage 6): remained similar
- insulin content (Stage 6 cells [3]; removal of Alk5i during Stage 6 versus treatment): increased with removal of Alk5i

Compound: exendin-4
- insulin secretion during second challenge, secretagogue added to 20 mM glucose (Stage 6 cells [1]): increased insulin secretion over high glucose alone

Compound: [Cl-].[K+] [KCl]
- response of Stage 6 cells to KCl challenge compared to human islets (Stage 6 cells [1]; 30 mM KCL with 20 mM glucose): stronger than in human islets
- insulin secretion during second challenge, secretagogue added to 20 mM glucose (Stage 6 cells [1]): largest increases
